Reference: patent US20060030616A1, “Anhydride modified cantharidin analogues useful in the treatment of cancer” (priority 1998, published 2006)

Columns and labels:
L1210 cells = assay: Checkpoint abrogation after 6 Gy radiation, flow cytometry; type: cell-based, murine; settings: 12 h after drug
Protocol: (§1) The cells are fixed in 70% ethanol and stored at −20° C. until analysis is performed (1-2 weeks). After fixing, the cells are pelleted and incubated in PBS containing propidium iodide ([…]) and RNase A (200 mg/ml) for at least 30 min at room temperature. The samples (2×10^4 events) are analysed using a Becton Dickson FACScan, fluorescence is collected in fluorescence detector 2 (FL2), filter 575/30 nm band pass. Cell cycle distribution is assessed using Cell Quest software (Becton Dickson).
(§2) The ability of the protein phosphatase inhibitors to abrogate the G1 or G2 checkpoint of the cell cycle may be determined by cell cycle analysis using flow cytometry. Briefly, asynchronous cell cultures are harvested 18 h after 6 Gy irradiation and/or 12 h incubation with the protein phosphatase inhibitor. Depending upon the p53 status of the cell line, radiation treatment alone will induce arrest in either G1 and/or G2 phase of the cell cycle.
(§3) If the protein phosphatase inhibitor abrogates the G2 checkpoint then the cells will not arrest in the G2 phase of the cell cycle and the cells will continue through the cell cycle and accumulate in the G1 phase of the cell cycle only. Similarily if the protein phosphatase inhibitors abrogates the G1 checkpoint then the cells will not arrest in the G1 phase of the cell cycle and accumulate in the G2 phase of the cell cycle only. Cell cycle analysis using propidium iodide labelling of DNA has been used extensively in our laboratory to assess the effect of specific anticancer agents that induce S-phase cell cycle arrest and apoptotic cell death (Sakoff, Ackland and Stewart, 1998). Experiments were performed on a Becton Dickinson FACScan and using Cell Quest software.
(§4) The cells were treated with 6 Gy of radiation and then treated with cantharidin 6 h later. The ability to abrogate cell cycle arrest was assessed is 12 h after the addition of the drugs.

HT29 cells = assay: as above; type: cell-based, human; settings: 12 h after drug
Protocol: as §1, §2, §3, §4

HCT116 cells = assay: as above; type: cell-based, human; settings: 12 h after drug
Protocol: as §1, §2, §3, §4

HL60 cells = assay: as above; type: cell-based, human; settings: 12 h after drug
Protocol: as §1, §2, §3, §4

nine cancer cell lines = assay: MTT cytotoxicity assay, 72 h, ranges over cell line panel; type: cell-based; settings: nine cell lines, read-out: IC50 range across all cell lines tested
Method in brief: (§5)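 L1210 cells were seeded at 1000 cells/well, other lines at 2000-25000 cells/well, and grown 24 h before treatment. Phosphatase inhibitors were then applied in triplicate for 72 h. MTT formazan absorbance was read at 540 nm, and IC50 was taken from dose-response curves of OD change between day 0 and day 3.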

WiDr cells = assay: MTT cytotoxicity assay, 72 h; type: cell-based, human; settings: Homo sapiens, 72 h, p53 mt, read-out: IC50 (mean ± SE) after 72 h continuous exposure
Method in brief: as §5

Question: What does the source list for `C[C@@]12C(=O)OC(=O)[C@]1(C)[C@H]1CC[C@@H]2O1` [Cantharidin, exo.exo-2.3-dimethyl-7-oxobicyclo[2.2.1]heptane-2,3-dicarboxylic acid anhydride]?
Answer: Cell Cycle Distribution, G1 (L1210 cells; L1210, 1 μM, 18 h after 6Gy): 27.2 percentage of total; Cell Cycle Distribution, G2 + M (L1210 cells; L1210, 1 μM, 18 h after 6Gy): 37.5 percentage of total; Cell Cycle Distribution, S (L1210 cells; L1210, 1 μM, 18 h after 6Gy): 25.6 percentage of total; Cell Cycle Distribution, sub G1 (L1210 cells; L1210, 1 μM, 18 h after 6Gy): 1.6 percentage of total; Cell Cycle Distribution, G1 (L1210 cells; L1210, 5 μM, 18 h after 6Gy): 25.8 percentage of total; Cell Cycle Distribution, G2 + M (L1210 cells; L1210, 5 μM, 18 h after 6Gy): 41.5 percentage of total; Cell Cycle Distribution, S (L1210 cells; L1210, 5 μM, 18 h after 6Gy): 31.9 percentage of total; Cell Cycle Distribution, sub G1 (L1210 cells; L1210, 5 μM, 18 h after 6Gy): 2.4 percentage of total; Cell Cycle Distribution, G1 (L1210 cells; L1210, 10 μM, 18 h after 6Gy): 24.9 percentage of total; Cell Cycle Distribution, G2 + M (L1210 cells; L1210, 10 μM, 18 h after 6Gy): 43.7 percentage of total; Cell Cycle Distribution, S (L1210 cells; L1210, 10 μM, 18 h after 6Gy): 29.4 percentage of total; Cell Cycle Distribution, sub G1 (L1210 cells; L1210, 10 μM, 18 h after 6Gy): 3.4 percentage of total; Cell Cycle Distribution, G1 (L1210 cells; L1210, 50 μM, 18 h after 6Gy): 4.1 percentage of total; Cell Cycle Distribution, G2 + M (L1210 cells; L1210, 50 μM, 18 h after 6Gy): 77.4 percentage of total; Cell Cycle Distribution, S (L1210 cells; L1210, 50 μM, 18 h after 6Gy): 15.6 percentage of total; Cell Cycle Distribution, sub G1 (L1210 cells; L1210, 50 μM, 18 h after 6Gy): 4.9 percentage of total; Checkpoint remark (L1210 cells; L1210, 50 μM, 18 h after 6Gy): G1 abrogation; Checkpoint abrogation (L1210 cells; L1210, 6 Gy): abrogated radiation induced G1 arrest; Cell Cycle Distribution, G1 (HT29 cells; HT29, 1 μM, 18 h after 6Gy): 35.2 percentage of total; Cell Cycle Distribution, G2 + M (HT29 cells; HT29, 1 μM, 18 h after 6Gy): 38.2 percentage of total; Cell Cycle Distribution, S (HT29 cells; HT29, 1 μM, 18 h after 6Gy): 10.6 percentage of total; Cell Cycle Distribution, sub G (HT29 cells; HT29, 1 μM, 18 h after 6Gy): 16.6 percentage of total; Cell Cycle Distribution, G1 (HT29 cells; HT29, 5 μM, 18 h after 6Gy): 38.6 percentage of total; Cell Cycle Distribution, G2 + M (HT29 cells; HT29, 5 μM, 18 h after 6Gy): 46.3 percentage of total; Cell Cycle Distribution, S (HT29 cells; HT29, 5 μM, 18 h after 6Gy): 10.6 percentage of total; Cell Cycle Distribution, sub G (HT29 cells; HT29, 5 μM, 18 h after 6Gy): 5.3 percentage of total; Cell Cycle Distribution, G1 (HT29 cells; HT29, 10 μM, 18 h after 6Gy): 21.1 percentage of total; Cell Cycle Distribution, G2 + M (HT29 cells; HT29, 10 μM, 18 h after 6Gy): 60.8 percentage of total; Cell Cycle Distribution, S (HT29 cells; HT29, 10 μM, 18 h after 6Gy): 12.3 percentage of total; Cell Cycle Distribution, sub G (HT29 cells; HT29, 10 μM, 18 h after 6Gy): 6.4 percentage of total; Cell Cycle Distribution, G1 (HT29 cells; HT29, 50 μM, 18 h after 6Gy): 23.0 percentage of total; Cell Cycle Distribution, G2 + M (HT29 cells; HT29, 50 μM, 18 h after 6Gy): 43.1 percentage of total; Cell Cycle Distribution, S (HT29 cells; HT29, 50 μM, 18 h after 6Gy): 20.7 percentage of total; Cell Cycle Distribution, sub G (HT29 cells; HT29, 50 μM, 18 h after 6Gy): 14.7 percentage of total; Checkpoint remark (HT29 cells; HT29, 50 μM, 18 h after 6Gy): G1 abrogation; Checkpoint abrogation (HT29 cells; HT29, 6 Gy): abrogated radiation induced G1 arrest; Cell Cycle Distribution, G1 (HCT116 cells; HCT116, 1 μM, 18 h after 6Gy): 26.1 percentage of total; Cell Cycle Distribution, G2 + M (HCT116 cells; HCT116, 1 μM, 18 h after 6Gy): 58.2 percentage of total; Cell Cycle Distribution, S (HCT116 cells; HCT116, 1 μM, 18 h after 6Gy): 13.8 percentage of total; Cell Cycle Distribution, sub G (HCT116 cells; HCT116, 1 μM, 18 h after 6Gy): 4.2 percentage of total; Cell Cycle Distribution, G1 (HCT116 cells; HCT116, 5 μM, 18 h after 6Gy): 23.6 percentage of total; Cell Cycle Distribution, G2 + M (HCT116 cells; HCT116, 5 μM, 18 h after 6Gy): 63.3 percentage of total; Cell Cycle Distribution, S (HCT116 cells; HCT116, 5 μM, 18 h after 6Gy): 10.4 percentage of total; Cell Cycle Distribution, sub G (HCT116 cells; HCT116, 5 μM, 18 h after 6Gy): 4.0 percentage of total; Cell Cycle Distribution, G1 (HCT116 cells; HCT116, 10 μM, 18 h after 6Gy): 25.7 percentage of total; Cell Cycle Distribution, G2 + M (HCT116 cells; HCT116, 10 μM, 18 h after 6Gy): 62.2 percentage of total; Cell Cycle Distribution, S (HCT116 cells; HCT116, 10 μM, 18 h after 6Gy): 9.4 percentage of total; Cell Cycle Distribution, sub G (HCT116 cells; HCT116, 10 μM, 18 h after 6Gy): 4.2 percentage of total; Cell Cycle Distribution, G1 (HCT116 cells; HCT116, 50 μM, 18 h after 6Gy): 12.2 percentage of total; Cell Cycle Distribution, G2 + M (HCT116 cells; HCT116, 50 μM, 18 h after 6Gy): 63.3 percentage of total; Cell Cycle Distribution, S (HCT116 cells; HCT116, 50 μM, 18 h after 6Gy): 15.6 percentage of total; Cell Cycle Distribution, sub G (HCT116 cells; HCT116, 50 μM, 18 h after 6Gy): 12.0 percentage of total; Checkpoint remark (HCT116 cells; HCT116, 50 μM, 18 h after 6Gy): G1 abrogation; Checkpoint abrogation (HCT116 cells; HCT116, 6 Gy): abrogated radiation induced G1 arrest; Cell Cycle Distribution, G1 (HL60 cells; HL60, 1 μM, 18 h after 6Gy): 5.2 percentage of total; Cell Cycle Distribution, G2 + M (HL60 cells; HL60, 1 μM, 18 h after 6Gy): 85.8 percentage of total; Cell Cycle Distribution, S (HL60 cells; HL60, 1 μM, 18 h after 6Gy): 3.0 percentage of total; Cell Cycle Distribution, sub G (HL60 cells; HL60, 1 μM, 18 h after 6Gy): 6.2 percentage of total; Cell Cycle Distribution, G1 (HL60 cells; HL60, 5 μM, 18 h after 6Gy): 5.7 percentage of total; Cell Cycle Distribution, G2 + M (HL60 cells; HL60, 5 μM, 18 h after 6Gy): 86.8 percentage of total; Cell Cycle Distribution, S (HL60 cells; HL60, 5 μM, 18 h after 6Gy): 3.5 percentage of total; Cell Cycle Distribution, sub G (HL60 cells; HL60, 5 μM, 18 h after 6Gy): 4.4 percentage of total; Cell Cycle Distribution, G1 (HL60 cells; HL60, 10 μM, 18 h after 6Gy): 5.6 percentage of total; Cell Cycle Distribution, G2 + M (HL60 cells; HL60, 10 μM, 18 h after 6Gy): 85.1 percentage of total; Cell Cycle Distribution, S (HL60 cells; HL60, 10 μM, 18 h after 6Gy): 4.3 percentage of total; Cell Cycle Distribution, sub G (HL60 cells; HL60, 10 μM, 18 h after 6Gy): 5.3 percentage of total; Cell Cycle Distribution, G1 (HL60 cells; HL60, 50 μM, 18 h after 6Gy): 10.2 percentage of total; Cell Cycle Distribution, G2 + M (HL60 cells; HL60, 50 μM, 18 h after 6Gy): 64.9 percentage of total; Cell Cycle Distribution, S (HL60 cells; HL60, 50 μM, 18 h after 6Gy): 11.3 percentage of total; Cell Cycle Distribution, sub G (HL60 cells; HL60, 50 μM, 18 h after 6Gy): 14.3 percentage of total; Checkpoint remark (HL60 cells; HL60, 50 μM, 18 h after 6Gy): Cell Death; Checkpoint abrogation (HL60 cells; HL60, 6 Gy): abrogated radiation induced G1 arrest; IC50 (nine cancer cell lines): 6.1 to 18 µM; IC50 (WiDr cells): 6.1 ± 0.5 µM
